Read-outs that look alike come from different tables or passages of the source.
Key:
[1] = cited from earlier work
[2] = tested on: patients suffering from hypotension; experiment: 28-day survival of hypotensive patients given angiotensin II or placebo, by baseline Ang I:Ang II ratio; assay type: in vivo, human
Experimental: The ratio of blood concentration of angiotensin I to blood concentration of angiotensin II in patients suffering from hypotension was determined and the patients were administered Angiotensin II or a placebo and their survival monitored for 28 days. In general, a low ratio of blood concentration of angiotensin I to blood concentration of angiotensin II (relative high ANG2 state) is protective across the patient population in multivariate analysis. When assessed by tertile, patients with a low ratio of blood concentration of angiotensin I to blood concentration of angiotensin II had better outcomes as assessed by a 28-day all-cause mortality as compared to high ratio of blood concentration of angiotensin I to blood concentration of angiotensin II (K-M survival curves, FIGS. 1 to 4). […] See also Table I and Table II.

In the case of `CC[C@H](C)[C@H](NC(=O)[C@H](Cc1ccc(O)cc1)NC(=O)[C@@H](N)C(C)C)C(=O)N[C@@H](Cc1cnc[nH]1)C(=O)N1CCC[C@H]1C(=O)N[C@@H](Cc1ccccc1)C(=O)O` [Angiotensin IV, Val-Tyr-Ile-His-Pro-Phe], the “Activity relative to angiotensin II” value ([1]; in words) is given as “less activity than angiotensin II”.
In the case of “Arg-Val-Tyr-Ile-His-Pro-Phe (RVYIHPF; printed: Arg-Val-Tyr-Ile-His-Pro-Phe) [Angiotensin III]”, the “Activity relative to angiotensin II” value ([1]; of the activity of angiotensin II) is listed as “approximately 40%”.
With “angiotensin II (DRVYIHPF; printed: Asp-Arg-Val-Tyr-Ile-His-Pro-Phe) [LJPC-501, text says patients were administered Angiotensin II or a placebo]” the “Mortality at Day 28, Estimate (95% CI)” value ([2]; Baseline Ang I:Ang II ratio <1.63, n = 70) was 41.6% (31.0%-54.0%), the “Mortality at Day 28, Estimate (95% CI)” value ([2]; Baseline Ang I:Ang II ratio ≥1.63, n = 72) was 50.0% (39.1%-62.0%) and the “Survival of patients with elevated Ang I:Ang II ratio” value ([2]; Elevated ratio patients given angiotensin II, compared with patients with a lower ratio) was “survival becomes comparable to patients who display a lower angiotensin I to angiotensin II ratio”. The “Treatment effect on 28-day all-cause mortality compared to control” value ([2]; Patients with the highest Ang I:Ang II ratio (relative low ANG2 state)) was “large treatment effect compared to control” and the “HR for mortality at Day 28, within treatment group” value ([2]; Within treatment group, baseline Ang I:Ang II ratio <1.63 vs ≥1.63) was 0.80.
